In series [1] the test system is Ras. The series can be described thus: GTPase and effector interaction assay (Raf1-RBD beads), HeLa cell lysates. To be noted: HeLa cells, 10 μM, 2 h, EGF 10 ng/mL 2 min.
Procedure: GST effector chimeras consisting of the minimal GTPase binding domain were p21-activated kinase p21 binding domain (PAK-PBD) for Cdc42, Raf1 Ras-binding domain (Raf1-RBD) for Ras, and Rab-interacting lysosomal protein (RILP) for Rab7 binding measurements.
Superdex peptide beads (13 μm, from GE Healthcare) derivatized with GSH were coated with effector proteins to saturation. […] The effector-coated glutathione beads (20,000 beads/assay) were incubated with 200 μL cell lysate from a single treated well for 1 h at 4°C. […] The bead associated fluorescence representing bound GTPase was quantified on an Accuri C6 flow cytometer.
The target of series [2] is Rac1 (Homo sapiens, UniProt P63000). In words: Multiplex bead-based flow cytometry dose-response of fluorescent guanine nucleotide binding. In general terms: A flow cytometer gives signals particle by particle.
Procedure: (§2) Briefly, individual GST-GTPases were separately attached to glutathione microsphere beads that were labeled with varying intensity of red fluorescent dye, and subsequently combined. The buffer contains 30 mM HEPES (pH 7.2), 150 mM KCl, 20 mM NaCl, 0.1% BSA, 1 mM DTT, 1 mM EDTA and 0.1% NP-40. For Rho A and Rac1, 1 mM EDTA was replaced with 1 mM MgCl2 to stabilize the protein. […] To study whether the compounds are slow binders, BODIPY^- FL GTP was added either immediately or 2 h after compound addition. […] The curves were fitted to the sigmoidal dose-response equation using GraphPad Prism. Percent response was calculated as the ratio of (sample MCF–negative control MCF) / (positive control MCF–negative control MCF).
The subject of series [3] is H358 cells. The series can be described thus: PE Annexin V apoptosis assay. As to conditions: 24 h or 48 h. Type of series: cell-based. As for the experimental part:
(§1) Cells were plated in a 96-well plate at 2000 cells per well and allowed to incubate overnight. Compound 1 or the same volume of DMSO was added on the second day. Viability was examined after 48 h. Data were collected from at least triplicate samples. Results were reported as viability treated/viability untreated (DMSO control). To evaluate apoptosis, the PE Annexin V Apoptosis Kit I was used. In 6-well plates, H358 cells were seeded at 50% confluence, while U937 FPRΔST cells were at 0.02 x 10^6 /mL. After overnight incubation, the cells were treated with compound 1 or DMSO. At 24 h or 48 h, cells were washed with PBS, and resuspended in 100 uL annexin-V binding buffer. After staining with annexin-V-FITC and 7-AAD, cells were analyzed on an Accuri C6 flow cytometer. At least 7,000 cells were measured per individual sample. The annexin^+AAD^- cells are defined as cells undergoing apoptosis. Data were collected from duplicate samples and the experiments were repeated. Results are given as the ratios of the apoptotic populations between the compound-treated and the DMSO-treated cells.

The test system of series [4] is U937 FPRΔST cells. The series can be described thus: PE Annexin V apoptosis assay. Type of series: cell-based. To be noted: 24 h or 48 h. As for the experimental part:
as §1

Series [5] addresses Cdc42 (Homo sapiens, UniProt P60953). The series can be described thus: Multiplex bead-based flow cytometry dose-response of fluorescent guanine nucleotide binding.
Procedure: Briefly, individual GST-GTPases were separately attached to glutathione microsphere beads that were labeled with varying intensity of red fluorescent dye, and subsequently combined. The buffer contains 30 mM HEPES (pH 7.2), 150 mM KCl, 20 mM NaCl, 0.1% BSA, 1 mM DTT, 1 mM EDTA and 0.1% NP-40. […] To study whether the compounds are slow binders, BODIPY^- FL GTP was added either immediately or 2 h after compound addition. […] The curves were fitted to the sigmoidal dose-response equation using GraphPad Prism. Percent response was calculated as the ratio of (sample MCF–negative control MCF) / (positive control MCF–negative control MCF).
For series [6], the system named is Rab7, Cdc42 and Ras. In words: Association and dissociation time course of BODIPY-FL GTP (real-time flow cytometry). Format: binding. As for the experimental part:
GTPases were bound to glutathione-coated microsphere beads overnight and unbound GTPases were removed by washing. The association and dissociation of BODIPY^- FL GTP was analyzed with the Accuri C6 flow cytometer in real-time. The initial 30 s set the baseline fluorescence. […] When the fluorescence plateau was reached, GTP at 50 μM was added to induce BODIPY^- FL GTP dissociation. […] All the concentrations given are the final concentrations.

Series [7] deals with RhoA (Homo sapiens, UniProt P61586). The series can be described thus: Multiplex bead-based flow cytometry dose-response of fluorescent guanine nucleotide binding. As to conditions: EC50 RhoA.
Chain of RhoA (P61586 whole entry): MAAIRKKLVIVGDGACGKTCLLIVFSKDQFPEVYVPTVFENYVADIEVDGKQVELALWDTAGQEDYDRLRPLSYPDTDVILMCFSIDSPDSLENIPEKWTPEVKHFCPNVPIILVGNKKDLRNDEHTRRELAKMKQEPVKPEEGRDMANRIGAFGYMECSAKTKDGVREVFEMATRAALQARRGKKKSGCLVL
Procedure: as §2
The nature of series [8]: Solubility in PBS and assay media. Format: physicochemical. As for the experimental part: page 7: conclusion, the available data support the idea that compound CID1067700 has non-classical competitive character. […] Solubility was measured in phosphate buffered saline (PBS) at room temperature (23 °C). PBS by definition is 137 mM NaCl, 2.7 mM KCl, 10 mM sodium phosphate dibasic, 2 mM potassium phosphate [monobasic and a pH of 7.4. Detection was based on UV absorbance. […] Solubility was also assessed in the each of the four media used in the individual assays. […] Table 1S. […] Stability, depicted as closed circles in the graph, was assessed at room temperature (23 °C) in PBS (no antioxidants or other protectants and DMSO concentration below 0.1%). Stability data is depicted in Fig. S8 showing the loss of compound with time over a 48 h period with a minimum of 6 time points and providing the percent remaining compound at end of the 48 h period. Under these conditions, 77% of 1 remains after 48 hours. The degradation has not been further characterized.

Series [9] deals with Rac1 Q61L (Homo sapiens, UniProt P63000, Q61L). In words: Multiplex bead-based flow cytometry dose-response of fluorescent guanine nucleotide binding. As to conditions: EC50 Rac1 Q61L.
The subject of series [10] is EGFR degradation, HeLa cells overexpressing Rab7 wild type. The series can be described thus: EGFR degradation in Rab7 overexpressing HeLa cells. Type of series: cell-based. To be noted: HeLa cells overexpressing Rab7, 100 μM, 3 h, 0-180 min. As for the experimental part:
The EGFR degradation assay in HeLa cells was carried out in a similar way to that in SCC-12F cells but with modifications. […] Cell lysates were prepared at various time points and immunoblotted for total EGFR while actin served as a loading control. Experiments were carried out in triplicate.

Series [11] concerns EGFR degradation regulated by Rab GTPases, SCC-12F cells. The series can be described thus: EGFR degradation in SCC-12F cells. Format: cell-based. As to conditions: EGF 20 nM, 0-120 min, versus DMSO. As for the experimental part: SCC-12F cells were seeded in 12-well plates at 0.12 x 10^6 cells/well and allowed to attach overnight. On the day of the experiment, the cells were starved in serum free medium containing 25 μg/mL cycloheximide for 2 h before compounds at different concentrations were added. The cells were treated with compound or DMSO for 0.5 h followed by the addition of ligand EGF at 20 nM. At time 0, 15, 30, 60, and 120 min, the suspension medium was removed and the cells were quickly washed with cold PBS and frozen at -80°C. For electrophoresis and blotting, CellLyticM Cell Lysis buffer containing protease inhibitor cocktails was added to the frozen cells and the protein concentrations were quantified using the Bradford assay. For SDS-PAGE, 10 μg of protein was loaded on each lane. After transblotting, the nitrocellulose membrane was probed with Anti-EGFR and Anti-actin primary antibody and secondary goat anti-rabbit IgG antibody with conjugated peroxidase. Actin served as a loading control. After adding the substrate SuperSignal West Dura, specific band signal was detected with ChemiDoc XRS+ molecular imager and the intensity was quantified using Image Lab software. Experiments were carried out either in duplicate and repeated or in triplicate. Results are given as the ratios of EGFR/actin at time t and EGFR/actin at time 0.

The mark [12] stands for this setting: concentration dependence on BODIPY-FL GDP.

Where “and” joins values, the source holds several entries; their conditions need not be identical. Equal entries are not always repeated. Where two headings read alike, the source gives them in different places.

One may read the EC50 as the concentration giving half of the maximal effect. A high value points to a need for much substance. One may read the solubility as the concentration that dissolves in the medium under given conditions.

Chain of Cdc42 (P60953 whole entry): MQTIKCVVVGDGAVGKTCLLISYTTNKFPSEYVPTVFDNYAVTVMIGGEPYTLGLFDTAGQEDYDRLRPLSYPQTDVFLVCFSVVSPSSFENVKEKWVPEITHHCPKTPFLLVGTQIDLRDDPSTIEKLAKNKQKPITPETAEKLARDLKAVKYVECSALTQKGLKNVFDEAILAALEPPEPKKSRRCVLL

In the case of `CC1(C)Cc2c(sc(NC(=S)NC(=O)c3ccccc3)c2C(=O)O)CO1` [Compound 1], the “level of active Ras after EGF stimulation” value in series [1] is on record as “dramatically blunted”. Besides, the 50% effective concentration (EC50) in series [2] (EC50 Rac1, BODIPY-FL GTP binding, 2 h at 4°C, 1 mM MgCl2) worked out at 62 ± 49 nM; in series [2] (EC50 Rac1, concentration dependence on BODIPY-FL GDP), 99 nM; in series [5] (EC50 Cdc42, BODIPY-FL GTP binding, 2 h at 4°C), 1090 ± 1620 nM; in [5] (EC50 Cdc42, concentration dependence on BODIPY-FL GDP), 420 nM; in series [5] (EC50 Cdc42_1, with 2 h incubation before BODIPY-FL GTP, Cdc42 purified in house), 2060 ± 38 nM; in series [5] (EC50 Cdc42_1, without incubation before BODIPY-FL GTP, Cdc42 purified in house) it was 2230 ± 1470 nM. The EC50 in [5] (EC50 Cdc42_2, with 2 h incubation before BODIPY-FL GTP, Cdc42 from Cytoskeleton) amounted to 3710 ± 39 nM; in [5] (EC50 Cdc42_2, without incubation before BODIPY-FL GTP, Cdc42 from Cytoskeleton), 4460 ± 2630 nM; in [7] (BODIPY-FL GTP binding, 2 h at 4°C, 1 mM MgCl2), 62 ± 49 nM; in series [7] (setting [12]), 100 nM; in series [9] (BODIPY-FL GTP binding, 2 h at 4°C), 75 ± 59 nM; in series [9] (setting [12]) it was 120 nM. The apoptosis entry in series [3] is “time-dependent apoptosis increase”. In [4], the apoptosis increase result is “absent”. For the same molecule, the “covalent bond formation with GTPases / reversibility” value in [6] (50 μM overnight, extensive washing) is recorded as “did not form a covalent bond”. The “dissociation of pre-bound BODIPY-FL GTP” value in series [6] (compound 50 μM added at plateau) is given as “able to induce dissociation”. Further, the “binding of BODIPY-FL GTP in the presence of compound” value in series [6] (compound 50 μM, BODIPY-FL GTP 100 nM) is reported as “decreased”. The solubility in series [8] (Dose Response-buffer (HEPES buffer), 23 °C, aqueous with cosolvent or surfactant or cyclodextrin, 30mM HEPES, pH 7.5, 100mM KCl, 20mM NaCl, 0.01% (v/v) NP-40, read-out: Solubility, Dose Response-buffer) was > 68.1 µg/mL and > 174 µM; in series [8] (EGFR degradation assay medium, DMEM/F-12, read-out: Solubility, EGFR degradation assay medium), > 116 µg/mL and > 297 µM; in [8] (LDV-FITC assay buffer, RPMI 1640 + 10% HI-FBS, read-out: Solubility, LDV-FITC assay buffer), > 116 µg/mL and > 297 µM; in series [8] (phosphate buffered saline (PBS), PBS pH 7.4, 23 °C, read-out: PBS solubility), > 116 µg/mL and > 297 µM. Also, the EGFR degradation result in [10] and in series [11] was “delayed EGFR degradation” throughout.

The values are drawn from article PMC4527730, “A Pan-GTPase Inhibitor as a Molecular Probe” (PLoS ONE, 2015).
